Data from patent US20050107447A1, “Novel lysophosphatidic acid receptor agonists and antagonists” (priority 2003, published 2005).
“Also recorded” adds a separate entry of the source.

Legend:
LPA3 [1] = biological target: T1, LPA3 (Homo sapiens, UniProt Q9UBY5); experiment: GTP[γ35S] binding, LPA3 transfected HEK293T cell membranes; assay type: biochemical; design: expressed in transfected cells; host or cells: HEK293T (transient, calcium phosphate)
T1 sequence (Q9UBY5 1-353): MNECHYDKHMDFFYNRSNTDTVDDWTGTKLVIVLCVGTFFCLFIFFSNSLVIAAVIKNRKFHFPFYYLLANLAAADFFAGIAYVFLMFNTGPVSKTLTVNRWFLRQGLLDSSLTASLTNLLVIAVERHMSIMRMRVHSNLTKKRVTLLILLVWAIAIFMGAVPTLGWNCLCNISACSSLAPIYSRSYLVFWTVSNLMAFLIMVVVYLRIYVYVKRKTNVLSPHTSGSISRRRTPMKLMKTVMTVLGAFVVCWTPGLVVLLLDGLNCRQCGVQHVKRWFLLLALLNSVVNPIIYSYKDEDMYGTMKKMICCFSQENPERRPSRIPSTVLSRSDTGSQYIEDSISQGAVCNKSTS
Procedure: (§1) The appropriate receptor plasmid DNA (encoding mouse LPA1, human LPA2 or human LPA3) was mixed with equal amounts of expression plasmids (pcDNA3) encoding a mutated (C351F) rat Gi2a, cow β1, and γ2 proteins and these DNAs were used to transfect monolayers of HEK293T cells (where ‘T’ indicates expression of the SV-40 virus large T antigen) using the calcium phosphate precipitate method. After about 60 hours, cells were harvested, membranes were prepared, aliquoted and stored at −70° C. until use.
(§2) The GTP[35 γS] assay was performed as described by us previously. Membranes containing 5 ug of protein were incubated in 0.1 ml GTP-binding buffer (in mM: HEPES 50, NaCl 100, MgCl2 10, pH7.5) containing […], […], 0.1 nM GTP[35 γS] (1200 Ci/mmol), and indicated lipid(s) for 30 minutes at 30° C. Samples were analyzed for membrane-bound radionuclide using a Brandel Cell Harvester (Gaithersburg, Md.).
(§3) The X-intercept of the linear transformation is equal to the inverse log of the κ1.
(§4) Membranes prepared from these cells are used to measure GTPγ[^35S] binding as a function of test compound concentration. The resulting dose-response curves provide relative potency (EC50) and efficacy, (Emax) for the test compounds.

LPA2 [2] = biological target: T2, LPA2 (Homo sapiens, UniProt Q9HBW0); experiment: GTP[γ35S] binding, LPA2 transfected HEK293T cell membranes; assay type: biochemical; design: expressed in transfected cells; host or cells: HEK293T (transient, calcium phosphate)
Procedure: as §1, §2, §3, §4

LPA1 [3] = biological target: T3, LPA1 (Mus musculus, UniProt P61793); experiment: GTP[γ35S] binding, LPA1 transfected HEK293T (or RH7777) cell membranes; assay type: biochemical; design: expressed in transfected cells; host or cells: HEK293T (transient, with G protein plasmids); some results from RH7777 rat hepatoma membranes transfected with LPA1 DNA only
Procedure: as §1, §2, §3, §4

LPP1 (PAP2a) phosphatase = biological target: T4, LPP1 (PAP2a) phosphatase (Homo sapiens, UniProt O14494); experiment: LPP inhibition, competition with 50 nM [32P]LPA; assay type: biochemical; settings: 0.1, 1.0 and 10.0 mM vs 50 nM [32P]LPA
T4 sequence (O14494 1-284): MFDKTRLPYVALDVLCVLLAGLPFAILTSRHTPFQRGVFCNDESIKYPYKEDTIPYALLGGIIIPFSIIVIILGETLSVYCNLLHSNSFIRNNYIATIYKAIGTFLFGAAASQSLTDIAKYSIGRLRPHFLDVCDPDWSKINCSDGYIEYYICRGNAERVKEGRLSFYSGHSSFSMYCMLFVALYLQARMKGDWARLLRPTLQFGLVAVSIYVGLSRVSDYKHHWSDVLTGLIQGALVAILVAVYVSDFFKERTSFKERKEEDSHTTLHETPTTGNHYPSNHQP
Procedure: (§5) NOHPP was also tested for activity at the three cloned LPPs. Although the phosphonate head group eliminates the possibility of NOHPP acting as a substrate, it is possible that the compound could be a competitive inhibitor.

LPP3 (PAP2b) phosphatase = biological target: T5, LPP3 (PAP2b) phosphatase (Homo sapiens, UniProt O14495); experiment: LPP inhibition, competition with 50 nM [32P]LPA; assay type: biochemical; settings: for Rank order potency of LPP inhibition: LPP3 vs LPP1 vs LPP2
T5 sequence (O14495 1-311): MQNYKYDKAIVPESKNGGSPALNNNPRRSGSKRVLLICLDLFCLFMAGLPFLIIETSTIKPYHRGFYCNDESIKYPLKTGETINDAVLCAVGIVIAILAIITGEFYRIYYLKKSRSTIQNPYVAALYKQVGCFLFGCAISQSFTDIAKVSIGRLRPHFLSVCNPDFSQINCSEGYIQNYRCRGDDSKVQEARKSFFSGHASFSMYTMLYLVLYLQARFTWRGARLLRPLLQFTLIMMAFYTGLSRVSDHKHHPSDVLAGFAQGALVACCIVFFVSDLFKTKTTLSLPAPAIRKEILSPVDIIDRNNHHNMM
Procedure: as §5

LPP2 (PAP2c) phosphatase = biological target: T6, LPP2 (PAP2c) phosphatase (Homo sapiens, UniProt O43688); experiment: LPP inhibition, competition with 50 nM [32P]LPA; assay type: biochemical; settings: 0.1, 1.0 and 10.0 mM vs 50 nM [32P]LPA
T6 sequence (O43688 1-288): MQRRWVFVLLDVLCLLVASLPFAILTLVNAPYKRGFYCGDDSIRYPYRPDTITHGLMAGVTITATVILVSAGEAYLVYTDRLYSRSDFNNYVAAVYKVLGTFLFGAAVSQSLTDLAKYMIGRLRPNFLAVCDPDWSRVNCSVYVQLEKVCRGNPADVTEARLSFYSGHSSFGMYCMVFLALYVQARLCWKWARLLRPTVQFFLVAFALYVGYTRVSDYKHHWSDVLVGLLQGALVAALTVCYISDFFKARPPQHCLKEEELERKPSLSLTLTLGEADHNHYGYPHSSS
Procedure: as §5

human platelets = experiment: Aggregation of human platelets; assay type: cell-based; settings: concentrations up to 10 micromolar
[4] = test system: endogenous LPA receptor of Xenopus laevis oocytes; experiment: Chloride conductance in Xenopus laevis oocytes, endogenous receptor; assay type: cell-based; settings: uninjected oocytes
Procedure: (§6) wls-b8L and the other phosphonates were also tested also for activity in three whole cell assays. […] Finally, the activity of wls-b8L in activating a chloride conductance in Xenopus laevis ooctyes was measured.

LPA2 [5] = biological target: T2, LPA2; experiment: Chloride conductance in Xenopus oocytes injected with human LPA2 mRNA; assay type: cell-based; design: expressed in transfected cells; host or cells: Xenopus laevis oocytes injected with mRNA; settings: 10 μM
Procedure: as §6

LPA3 [6] = biological target: T1, LPA3; experiment: Chloride conductance in Xenopus oocytes injected with human LPA3 mRNA; assay type: cell-based; design: expressed in transfected cells; host or cells: Xenopus laevis oocytes injected with mRNA; settings: 10 μM
Procedure: as §6

MDA MB-231 cells = experiment: Calcium mobilization through endogenous LPA receptors in MDA MB-231 cells; assay type: cell-based; settings: 1 μM
Procedure: as §6

LPA1 [7] = biological target: T3, LPA1; experiment: cAMP accumulation in RH7777 cells stably expressing LPA1; assay type: cell-based; design: expressed in transfected cells; settings: concentration of 1 μM
Procedure: Assays for cAMP accumulation were conducted on populations of 5×10^5 cells stimulated with […] in the presence of the phosphodiesterase inhibitor isomethylbutylxanthine (IBMX) for 15 minutes at 30° C. cAMP was measured by automated radioimmunoassay.
Rat hepatoma RH7777 cell monolayers were transfected with the mLPA1 plasmid DNA using the calcium phosphate precipitate method and clonal populations expressing the neomycin phosphotransferase gene were selected by addition of geneticin (G418) to the culture media. The RH7777 cells were grown in monolayers at 37° C. in a 5% CO02/95% air atmosphere in growth media consisting of: 90% MEM, 10% fetal bovine serum, 2 mM glutamine and 1 mM sodium pyruvate.
as §6

T2 sequence (Q9HBW0 whole entry): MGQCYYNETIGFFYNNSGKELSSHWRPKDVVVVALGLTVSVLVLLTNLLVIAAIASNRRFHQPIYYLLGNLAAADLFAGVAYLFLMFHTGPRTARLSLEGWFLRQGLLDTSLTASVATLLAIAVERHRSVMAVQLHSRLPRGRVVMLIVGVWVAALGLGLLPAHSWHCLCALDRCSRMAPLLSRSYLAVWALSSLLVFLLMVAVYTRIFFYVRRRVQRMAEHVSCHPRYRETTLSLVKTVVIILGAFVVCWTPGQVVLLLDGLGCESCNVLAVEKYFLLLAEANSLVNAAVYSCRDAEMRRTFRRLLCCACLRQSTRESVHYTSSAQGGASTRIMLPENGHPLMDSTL
T3 sequence (P61793 whole entry): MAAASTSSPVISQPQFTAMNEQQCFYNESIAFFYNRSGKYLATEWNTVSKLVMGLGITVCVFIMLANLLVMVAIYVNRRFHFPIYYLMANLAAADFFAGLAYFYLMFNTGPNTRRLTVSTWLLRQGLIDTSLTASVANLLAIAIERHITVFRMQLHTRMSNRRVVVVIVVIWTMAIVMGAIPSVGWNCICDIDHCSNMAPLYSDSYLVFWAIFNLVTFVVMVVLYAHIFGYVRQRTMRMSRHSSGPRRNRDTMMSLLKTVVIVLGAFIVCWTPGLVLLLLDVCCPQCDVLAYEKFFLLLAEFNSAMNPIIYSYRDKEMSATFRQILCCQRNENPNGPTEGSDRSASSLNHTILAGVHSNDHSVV

Row | Inhibition of LPP1 (LPP1 (PAP2a) phosphatase) | Inhibition of LPP3 (LPP3 (PAP2b) phosphatase; 0.1, 1.0 and 10.0 mM vs 50 nM [32P]LPA) | Rank order potency of LPP inhibition (LPP3 (PAP2b) phosphatase) | Inhibition of LPP2 (LPP2 (PAP2c) phosphatase) | Activation of chloride conductance [4] | Activation of chloride conductance (LPA2 [5]) | Activation of chloride conductance (LPA3 [6]) | Inhibition of cAMP accumulation (agonist efficacy) (LPA1 [7]) | SMILES | Agonist activity/efficacy at LPA3 (LPA3 [1]; compared to LPA) | Potency at LPA3 relative to LPA (LPA3 [1]; vs 1-oleoyl LPA) | Agonist activity/efficacy at LPA2 (LPA2 [2]; compared to LPA) | Potency at LPA2 relative to LPA (LPA2 [2]; vs 1-oleoyl LPA) | Agonist activity/efficacy at LPA1 (LPA1 [3]; compared to LPA) | Potency at LPA1 relative to LPA (LPA1 [3]; vs 1-oleoyl LPA) | Rank order potency of LPP inhibition (LPP3 (PAP2b) phosphatase; listed as VPC12031) | Aggregation of human platelets (human platelets) | Receptor-type selectivity of agonist activity (LPA1 vs LPA2, LPA3) (LPA1 [3]; GTPγ[35S] binding) | Calcium mobilization (MDA MB-231 cells)
1 | to a lesser extent | inhibited | LPP3>LPP1>>LPP2 | inactive | – | – | – | – | CCCCCCCC/C=C\CCCCCCCC(=O)NCCC(O)P(=O)(O)O (racemic) [NOHPP, (9Z)-N-(rac-3-hydroxy-3-phosphonopropyl)Octadec-9-enamide] | far less efficacious; also recorded: little activity | distinctly less potent; also recorded: greater than two log orders less potent | as efficacious as; also recorded: fully efficacious | somewhat less potent; also recorded: about one log order less potent | as efficacious as; also recorded: fully efficacious | somewhat less potent; also recorded: about one log order less potent | markedly better at the PAP2b (LPP3) than PAP2a (LPP1) | – | – | –
2 | – | – | – | – | does not evoke this response | very modest response | very modest response | fully efficacious | CCCCCCCC/C=C\CCCCCCCC(=O)NCCCP(=O)(O)O [wls-b8L, (9Z)-N-(3-phosphonopropyl)Octadec-9-enamide] | – | – | – | – | – | – | – | does not elicit aggregation | more potent and efficacious at LPA1 than at either LPA2 or LPA3; also recorded: distinctly more selective | inactive
